Consider 7 compounds from patent US20140178461A1, “COMPOUNDS AND COMPOSITIONS FOR USE IN THE TREATMENT AND PREVENTION OF LUNG AND BRAIN CANCER AND PRECANCEROUS CONDITIONS THEREOF” (priority 2012, published 2014).

Details of data set [1]: AUC in plasma: unit not given beside the values. The following applies: mouse, in vivo, inhaled or intranasal.
A further data set deals with heart tissue. Put plainly: Cardiotoxicity, histology of heart tissue sections from treated mice. The following applies: mice treated for about 1.5 months.
The subject of data set [2] is Salmonella Typhimurium (TA98 and TA100). Put plainly: Genotoxicity, reverse mutations in Salmonella with and without rat liver S9. The following applies: strains TA98 and TA100, presence and absence of rat liver S9.
For data set [3], the system named is A549 human non-small cell lung cancer cells. Put plainly: Subcutaneous A549 xenograft in NOD SCID mice (efficacy of PTI 93). It counts as in vivo, mouse. Particulars: end of study, factoring in the 0 time value. As to the method:
A549 human non-small cell lung cancer cells (1.5×10^5) were injected subcutaneously in the left and right flanks of 5-6-week-old female NOD SCID mice (Taconic Farms, Germantown, N.Y.). When the average tumor volume reached 100 mm^3, mice were treated by oral gavage of 10 or 15 mg/kg/day PTI 93 or vehicle (corn oil) for 2 weeks, when they were sacrificed and the tumors were harvested.

A short description of data set [4]: Pharmacokinetics study of PTI 93 in mice (plasma levels). The following applies: single i.p. dose of 100 mg/kg PTI 93, mice.
The subject of data set [5] is A549 human non-small lung cancer cells. Nature of the data set: Orthotopic A549-GFP lung tumor model in Ncr nude mice (efficacy of phospho-ibuprofen amide 1). It counts as in vivo. The following applies: 200 mg/kg once a week for 8 weeks; compound 1 liposomal; versus control.
The nature of data set [6]: Biodistribution of liposomal phospho-ibuprofen amide 1 in mice after i.v. administration. Type of data set: in vivo. The following applies: single 200 mg/kg i.v. dose, 1 h.
The nature of another data set: in vivo. Particulars: mouse, ip, 58 mg/kg.
The next data set concerns U87 glioblastoma cells. Nature of the data set: Apoptosis, Annexin V-FITC/PI staining by FACS. Type of data set: cell-based, human.
A further data set deals with U87 cells. Put plainly: Inhibition of glioblastoma cell line U87, 24-h growth inhibitory concentration. It counts as cell-based, human. Particulars: 24-hour growth inhibition.

Like-named read-outs stand apart in the source and are kept apart here.

Turning to `CC1=C(CC(=O)O)c2cc(F)ccc2/C1=C\c1ccc(S(C)(=O)=O)cc1` [Sulindac sulfone 132, sulindac sulfone], in data set [1] (BALB/c nude), the AUC in plasma amounted to 142.4, the highest level (Cmax) was 10.4 µM, the Tmax in lung was found to be 8 h and the Tmax in plasma was found to be 8 h. In [1], this compound gave an AUC in lung of 57.5 nmol·h/g and a Cmax in lung of 4.6 nmol/g.
As to `CCOP(=O)(OCC)OCCc1ccc(OC(=O)Cc2c(C)n(C(=O)c3ccc(Cl)cc3)c3ccc(OC)cc23)cc1` [PTI 93, [1-(4-Chloro-benzoyl)-5-methoxy-2-methyl-1H-indol-3-yl]-acetic acid 4-[2-(diethoxy-phosphoryloxy)-ethyl]-phenyl ester], the “cardiotoxicity (histology, treated versus healthy control mice)” value in the data set with heart tissue is listed as “no differences”. Also, the “genotoxicity (reverse mutations)” value in [2] was “no genotoxicity”. Further, the “reduction of tumor volume” value came to 85% in [3] (10 mg/kg/day oral gavage for 2 weeks) and 96% in data set [3] (15 mg/kg/day oral gavage for 2 weeks). Further, the “time of maximum plasma concentration of intact PTI” value in data set [4] was 2 h. Moreover, in data set [4] (4 hours), the “plasma level of intact PTI 4 hours post administration” value is on record as “undetectable”.
For the compound `CCOP(=O)(OCC)OCCCCNC(=O)C(C)c1ccc(CC(C)C)cc1` (stereo not shown) [phospho-ibuprofen amide 1, Phosphoric acid diethyl ester 4-[2-(4-isobutyl-phenyl)-propionylamino]-butyl ester], in data set [5], the “reduction based on lung tumor weight (lung weight)” value is recorded as 80% and the “reduction of lung cancer based on fluorescence” value came out at 95%. Further, in data set [6], the “biodistribution (drug concentration in blood and major organs)” value was “preferentially accumulated in lungs”.
Consider `CSc1ccc(/C=C2/C(C)=C(CC(=O)O)c3cc(F)ccc32)cc1` [Sulindac sulfide 131, sulindac sulfide], for which, in [1] (BALB/c nude), the AUC in plasma is on record as 66.9. The compound also registered an AUC in lung in [1] of 18.9 nmol·h/g.
As to `COc1ccc2c(c1)c(CC(=O)O)c(C)n2C(=O)c1ccc(Cl)cc1` [indomethacin 127, indomethacin], in the data set “in vivo”, the AUC(0-t) stood at 500 µM·h and the highest concentration (Cmax) worked out at 127 µM.
Regarding `CCCC(CCC)C(=O)Oc1ccc(COP(=O)(OCC)OCC)cc1` [PV 116, Phosphovalproic Acid], the “fold-increase of annexinV (+) cells” value in the data set with U87 glioblastoma cells is reported as 3.0 fold.
For `CC1=C(CC(=O)O)c2cc(F)ccc2/C1=C\c1ccc([S+](C)[O-])cc1` (stereo not shown) [Sulindac, sulindac], the IC50 in the data set on U87 cells was not below 1000 µM. In addition, in data set [1], the AUC in lung was found to be 30.1 nmol·h/g, the AUC in plasma worked out at 49.5, the Tmax in lung was 0 h and the Tmax in plasma was found to be 0 h.

As a reminder, the Cmax is the peak of the concentration-time curve. Usually AUC(0-t) stands for exposure summed from dosing to a finite time, without extrapolation to infinity. Usually IC50 stands for the concentration that gives 50% inhibition.
